Legend:
Aβ42 = assay: First-in-human study: Aβ42 in CSF; format: in vivo; conditions: 2 weeks
From the text: (§1) The purpose of this study was to determine the single and multiple maximum tolerated dose of Compound 1 and to assess the pharmacokinetic/pharmacodynamic (PK/PD) relationship using Aβ in CSF as primary PD biomarker.
(§2) In the completed first-in-human and 3-month dose-ranging safety and tolerability clinical studies described in Examples 5 and 6, Aβ concentrations in CSF were obtained by means of lumbar punctures before the first dose (baseline) and respectively after 2 weeks and 3 months of multiple dosing. ApoE4 genotype also was obtained in the subjects who consented. The percent change from baseline in Aβ40 and Aβ42 concentrations was calculated in subjects who took the study treatment and had no major protocol deviation with potential impact on the evaluation of the pharmacodynamic effect. Tables 18 to 21 below provide summary statistics of the percent change from baseline by treatment group and ApoE genotype (E4 heterozygotes versus E4 non-carriers). Only one subject with CSF data was E4 homozygote (from the 3-month dose-ranging safety and tolerability study).

Aβ40 = assay: First-in-human study: Aβ40 in CSF; format: in vivo; conditions: for Aβ40 % change from baseline, Mean (SD) / Aβ40 % change from baseline, Median: CSF, 2 weeks; for lowering of CSF Aβ40 concentrations, up to: healthy elderly subjects
Experimental: as §1
Pharmacodynamic assessments using Aβ concentrations in CSF as primary biomarker of drug action were also been applied in healthy elderly subjects. Dose-dependent lowering of Aβ40 concentrations was determined up to approximately 80% and 90% after single and multiple dosing, respectively (Tables 14 and 15, FIG. 9).
as §2

[1] = multiple-dose 10 mg, Day 15 (24 h post last dose)
[2] = multiple-dose 30 mg, Day 15 (24 h post last dose)
[3] = multiple-dose 90 mg, Day 15 (24 h post last dose)
[4] = multiple-dose 300 mg, Day 15 (24 h post last dose)

`C[C@@]1(c2nc(NC(=O)c3ncc(C(F)(F)F)cc3Cl)ccc2F)CO[C@@](C)(C(F)(F)F)C(N)=N1` [Compound 1, N-(6-((3R,6R)-5-amino-3,6-dimethyl-6-(trifluoromethyl)-3,6-dihydro-2H-1,4-oxazin-3-yl)-5-fluoropyridin-2-yl)-3-chloro-5-(trifluoromethyl)picolinamide] was tested. Which “Aβ42 % change from baseline, Mean (SD)” value (Aβ42; 10 mg, E4 heterozygotes) did it give?
Its value is −59 (11) %.

And the “Aβ42 % change from baseline, Median” value (Aβ42; 10 mg, E4 heterozygotes)?
Its value is −64%.

And the “Aβ42 % change from baseline, Mean (SD)” value (Aβ42; 10 mg, E4 non-carriers)?
Its value is −58 (11) %.

What about the “Aβ42 % change from baseline, Median” value (Aβ42; 10 mg, E4 non-carriers) of the same molecule?
Its value is −59%.

What about the “Aβ42 % change from baseline, Mean (SD)” value (Aβ42; 30 mg, E4 non-carriers) of the same molecule?
The value was −80 (6) %.

And the “Aβ42 % change from baseline, Median” value (Aβ42; 30 mg, E4 non-carriers)?
The value was −82%.

And the “Aβ42 % change from baseline, Mean (SD)” value (Aβ42; 90 mg, E4 heterozygotes)?
The value was −87 (2) %.

And the “Aβ42 % change from baseline, Median” value (Aβ42; 90 mg, E4 heterozygotes)?
The value was −87%.

What about the “Aβ42 % change from baseline, Mean (SD)” value (Aβ42; 90 mg, E4 non-carriers) of the same molecule?
Its value is −86 (5) %.

And the “Aβ42 % change from baseline, Median” value (Aβ42; 90 mg, E4 non-carriers)?
Its value is −87%.

What about the “Aβ42 % change from baseline, Mean (SD)” value (Aβ42; 300 mg, E4 heterozygotes (n 1)) of the same molecule?
Its value is −89%.

And the “Aβ42 % change from baseline, Median” value (Aβ42; 300 mg, E4 heterozygotes (n 1))?
Its value is −89%.

And the “Aβ42 % change from baseline, Mean (SD)” value (Aβ42; 300 mg, E4 non-carriers)?
Its value is −92 (1) %.

What about the “Aβ42 % change from baseline, Median” value (Aβ42; 300 mg, E4 non-carriers) of the same molecule?
Its value is −91%.

And the “Aβ40 % change from baseline, Mean (SD)” value (Aβ40; 10 mg, E4 heterozygotes)?
Its value is −56 (10) %.

And the “Aβ40 % change from baseline, Median” value (Aβ40; 10 mg, E4 heterozygotes)?
The value was −53%.

What about the “Aβ40 % change from baseline, Mean (SD)” value (Aβ40; 10 mg, E4 non-carriers) of the same molecule?
The value was −59 (7) %.

And the “Aβ40 % change from baseline, Median” value (Aβ40; 10 mg, E4 non-carriers)?
The value was −61%.

And the “Aβ40 % change from baseline, Mean (SD)” value (Aβ40; 30 mg, E4 non-carriers)?
Its value is −80 (4) %.

And the “Aβ40 % change from baseline, Median” value (Aβ40; 30 mg, E4 non-carriers)?
Its value is −81%.

And the “Aβ40 % change from baseline, Mean (SD)” value (Aβ40; 90 mg, E4 heterozygotes)?
The value was −90 (2) %.

What about the “Aβ40 % change from baseline, Median” value (Aβ40; 90 mg, E4 heterozygotes) of the same molecule?
Its value is −90%.

And the “Aβ40 % change from baseline, Mean (SD)” value (Aβ40; 90 mg, E4 non-carriers)?
Its value is −89 (2) %.

What about the “Aβ40 % change from baseline, Median” value (Aβ40; 90 mg, E4 non-carriers) of the same molecule?
Its value is −90%.

What about the “Aβ40 % change from baseline, Mean (SD)” value (Aβ40; 300 mg, E4 heterozygotes (n 1)) of the same molecule?
The value was −93%.

And the “Aβ40 % change from baseline, Median” value (Aβ40; 300 mg, E4 heterozygotes (n 1))?
Its value is −93%.

And the “Aβ40 % change from baseline, Mean (SD)” value (Aβ40; 300 mg, E4 non-carriers)?
Its value is −94 (1) %.

What about the “Aβ40 % change from baseline, Median” value (Aβ40; 300 mg, E4 non-carriers) of the same molecule?
Its value is −94%.

What about the “lowering of CSF Aβ40 concentrations, up to” value (Aβ40; multiple dosing) of the same molecule?
The value was roughly 90%.

And the “lowering of CSF Aβ40 concentrations, up to” value (Aβ40; single dosing)?
Its value is “approximately 80%”.

What about the “Aβ40 in CSF percent change from baseline, Mean (SD)” value (from here on “Aβ40 in CSF percent change … (SD)”) (Aβ40; [1]) of the same molecule?
Its value is −60.1 (9.91) %.

And the “Aβ40 in CSF percent change from baseline, Median” value (Aβ40; [1])?
Its value is −61.5%.

And the “Aβ40 in CSF percent change … (SD)” value (Aβ40; [2])?
The value was −80.0 (3.89) %.

What about the “Aβ40 in CSF percent change from baseline, Median” value (Aβ40; [2]) of the same molecule?
The value was −80.2%.

What about the “Aβ40 in CSF percent change … (SD)” value (Aβ40; [3]) of the same molecule?
The value was −88.2 (3.07) %.

And the “Aβ40 in CSF percent change from baseline, Median” value (Aβ40; [3])?
Its value is −89.1%.

And the “Aβ40 in CSF percent change … (SD)” value (Aβ40; [4])?
Its value is −93.6 (0.61) %.

What about the “Aβ40 in CSF percent change from baseline, Median” value (Aβ40; [4]) of the same molecule?
The value was −93.5%.

What about the “Aβ40 in CSF percent change … (SD)” value (Aβ40; single-dose 10 mg, 12 h) of the same molecule?
Its value is −11.6 (8.31) %.

What about the “Aβ40 in CSF percent change from baseline, Median” value (Aβ40; single-dose 10 mg, 12 h) of the same molecule?
The value was −12.5%.

What about the “Aβ40 in CSF percent change from baseline, Min-Max” value (Aβ40; single-dose 10 mg, 12 h) of the same molecule?
The value was −21-1%.

What about the “Aβ40 in CSF percent change … (SD)” value (Aβ40; single-dose 10 mg, 24 h) of the same molecule?
The value was −15.0 (10.21) %.

And the “Aβ40 in CSF percent change from baseline, Median” value (Aβ40; single-dose 10 mg, 24 h)?
Its value is −14.3%.

And the “Aβ40 in CSF percent change from baseline, Min-Max” value (Aβ40; single-dose 10 mg, 24 h)?
The value was −31-−4%.

What about the “Aβ40 in CSF percent change … (SD)” value (Aβ40; single-dose 10 mg, 34 h) of the same molecule?
The value was −9.7 (14.72) %.

What about the “Aβ40 in CSF percent change from baseline, Median” value (Aβ40; single-dose 10 mg, 34 h) of the same molecule?
The value was −12.5%.

And the “Aβ40 in CSF percent change from baseline, Min-Max” value (Aβ40; single-dose 10 mg, 34 h)?
Its value is −25-10%.

What about the “Aβ40 in CSF percent change … (SD)” value (Aβ40; single-dose 90 mg, 12 h) of the same molecule?
The value was −14.2 (35.83) %.

And the “Aβ40 in CSF percent change from baseline, Median” value (Aβ40; single-dose 90 mg, 12 h)?
Its value is −28.0%.

And the “Aβ40 in CSF percent change from baseline, Min-Max” value (Aβ40; single-dose 90 mg, 12 h)?
Its value is −36-58%.

What about the “Aβ40 in CSF percent change … (SD)” value (Aβ40; single-dose 90 mg, 24 h) of the same molecule?
The value was −44.8 (12.48) %.

What about the “Aβ40 in CSF percent change from baseline, Median” value (Aβ40; single-dose 90 mg, 24 h) of the same molecule?
The value was −49.2%.

What about the “Aβ40 in CSF percent change from baseline, Min-Max” value (Aβ40; single-dose 90 mg, 24 h) of the same molecule?
Its value is −55-−25%.

And the “Aβ40 in CSF percent change … (SD)” value (Aβ40; single-dose 90 mg, 34 h)?
Its value is −50.0 (8.87) %.

And the “Aβ40 in CSF percent change from baseline, Median” value (Aβ40; single-dose 90 mg, 34 h)?
The value was −45.4%.

What about the “Aβ40 in CSF percent change from baseline, Min-Max” value (Aβ40; single-dose 90 mg, 34 h) of the same molecule?
Its value is −60-−41%.

And the “Aβ40 in CSF percent change … (SD)” value (Aβ40; single-dose 300 mg, 12 h)?
Its value is −35.8 (16.40) %.

And the “Aβ40 in CSF percent change from baseline, Median” value (Aβ40; single-dose 300 mg, 12 h)?
The value was −44.1%.

And the “Aβ40 in CSF percent change from baseline, Min-Max” value (Aβ40; single-dose 300 mg, 12 h)?
The value was −54-−13%.

What about the “Aβ40 in CSF percent change … (SD)” value (Aβ40; single-dose 300 mg, 24 h) of the same molecule?
The value was −68.3 (10.65) %.

And the “Aβ40 in CSF percent change from baseline, Median” value (Aβ40; single-dose 300 mg, 24 h)?
Its value is −72.5%.

And the “Aβ40 in CSF percent change from baseline, Min-Max” value (Aβ40; single-dose 300 mg, 24 h)?
Its value is −79-−52%.

And the “Aβ40 in CSF percent change … (SD)” value (Aβ40; single-dose 300 mg, 34 h)?
The value was −78.3 (4.75) %.

What about the “Aβ40 in CSF percent change from baseline, Median” value (Aβ40; single-dose 300 mg, 34 h) of the same molecule?
The value was −79.3%.

And the “Aβ40 in CSF percent change from baseline, Min-Max” value (Aβ40; single-dose 300 mg, 34 h)?
Its value is −84-−69%.

And the “Aβ40 in CSF percent change … (SD)” value (Aβ40; single-dose 750 mg, 12 h)?
Its value is −36.2 (13.58) %.

And the “Aβ40 in CSF percent change from baseline, Median” value (Aβ40; single-dose 750 mg, 12 h)?
The value was −38.6%.

What about the “Aβ40 in CSF percent change from baseline, Min-Max” value (Aβ40; single-dose 750 mg, 12 h) of the same molecule?
The value was −53-−10%.

And the “Aβ40 in CSF percent change … (SD)” value (Aβ40; single-dose 750 mg, 24 h)?
The value was −67.4 (15.54) %.

What about the “Aβ40 in CSF percent change from baseline, Median” value (Aβ40; single-dose 750 mg, 24 h) of the same molecule?
Its value is −70.6%.

And the “Aβ40 in CSF percent change from baseline, Min-Max” value (Aβ40; single-dose 750 mg, 24 h)?
The value was −82-−36%.

What about the “Aβ40 in CSF percent change … (SD)” value (Aβ40; single-dose 750 mg, 34 h) of the same molecule?
Its value is −79.1 (8.88) %.

What about the “Aβ40 in CSF percent change from baseline, Median” value (Aβ40; single-dose 750 mg, 34 h) of the same molecule?
Its value is −82.3%.

And the “Aβ40 in CSF percent change from baseline, Min-Max” value (Aβ40; single-dose 750 mg, 34 h)?
Its value is −87-−60%.

Reference: US20200345746A1, “Oxazine Derivative for Use in the Prevention of Alzheimer's Disease in at Risk Patents” (Novartis AG, priority 2016, published 2020)
